Assay [1] deals with IL-2 secretion by human effector memory T cells (TEM). Briefly: Effector memory T cells IL-2 release assay. The class given is cell-based. To be noted: T-cell; human CD4+ effector memory T cells, CD3/CD28 bead stimulation, 24 h; read-out: CD4TC IL2 IC50. In outline:
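Human CD4+ effector memory T cells from healthy-donor buffy coats were stimulated with anti-CD3/CD28 Dynabeads and exposed to 10 semi-log compound doses (0.1% DMSO) for 24 h at 37 °C. Supernatant IL-2 was measured by HTRF, and IC50 came from a 4-parameter logistic fit to maximal IL-2. Viability was checked by flow cytometry.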

For assay [2], the target named is Recombinant human MALT-1 (amino acids 340-824) (Homo sapiens (Human), UniProt Q9UDY8). Briefly: MALT-1 inhibition assay (fluorogenic substrate Ac-LRSR-Rh110-DP). In kind it is biochemical. The settings on record: recombinant human MALT-1, substrate Ac-LRSR-Rh110-DP. In outline:
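MALT-1 at 3 nM final was reacted with 10 μM Ac-LRSR-Rh110-DP, with substrate addition starting the reaction. Incubation ran 60 minutes at 25° C in the dark. Percent inhibition from fluorescence across doses was fitted to a 4-parameter logistic to give IC50.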

Among the data in patent US20250051327A1, “MALT-1 MODULATORS” (EXSCIENTIA AI LIMITED, priority 2020, published 2025) are IC50 values, retold here.

By IC50 is commonly meant the concentration at which inhibition is half-maximal.

Chain of Recombinant human MALT-1 (amino acids 340-824) (Q9UDY8 340-824): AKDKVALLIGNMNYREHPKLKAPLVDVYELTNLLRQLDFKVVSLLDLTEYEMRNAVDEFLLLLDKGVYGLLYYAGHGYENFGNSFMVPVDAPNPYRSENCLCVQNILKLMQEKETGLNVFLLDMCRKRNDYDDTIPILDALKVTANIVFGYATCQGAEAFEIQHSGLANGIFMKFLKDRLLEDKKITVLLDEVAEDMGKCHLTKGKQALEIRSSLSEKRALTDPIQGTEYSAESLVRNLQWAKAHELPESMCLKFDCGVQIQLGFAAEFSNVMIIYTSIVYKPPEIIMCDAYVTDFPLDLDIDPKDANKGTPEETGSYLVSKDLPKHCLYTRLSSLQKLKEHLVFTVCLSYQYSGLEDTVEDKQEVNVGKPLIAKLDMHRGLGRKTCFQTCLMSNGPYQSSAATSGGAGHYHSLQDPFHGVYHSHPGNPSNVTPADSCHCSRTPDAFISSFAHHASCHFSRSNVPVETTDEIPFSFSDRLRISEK

In the case of `CN(C(=O)[C@@H]1CC(=O)N1)[C@@H](c1ccc(N2CCCc3c2cnc2cc(Cl)nn32)cc1)C(F)(F)F` [CPD0075870, (2S)-N-[(1S)-1-[4-(4-chloro-2,3,7,10-tetrazatricyclo[7.4.0.0^2,6]trideca-1(9),3,5,7-tetraen-10-yl)phenyl]-2,2,2-trifluoro-ethyl]-N-methyl-4-oxo-azetidine-2-carboxamide], the IC50 in assay [1] came to 120 nM; in assay [2], 63 nM.
For `CN(C(=O)C1CCS(=O)(=O)CC1)[C@@H](c1ccc(N2CCCc3c2cnc2cc(Cl)nn32)cc1)C(C)(F)F` [CPD0072803, N-[(1S)-1-(4-{4-chloro-2,3,7,10-tetraazatricyclo[7.4.0.0^2,6]trideca-1(9),3,5,7-tetraen-10-yl}phenyl)-2,2-difluoropropyl]-N-methyl-1,1-dioxo-1λ^6-thiane-4-carboxamide] the same measures were 1890 nM and 322 nM.
Taken in the same sequence, the figures for `CN1C(=O)CC[C@@H]1C(=O)N(C)[C@@H](c1ccc(N2CCCc3c2cnc2cc(Cl)nn32)cc1)C(F)(F)F` [CPD0073920, (2R)-N-[(1S)-1-(4-{4-chloro-2,3,7,10-tetraazatricyclo[7.4.0.0^2,6]trideca-1(9),3,5,7-tetraen-10-yl}phenyl)-2,2,2-trifluoroethyl]-N,1-dimethyl-5-oxopyrrolidine-2-carboxamide] were 94 nM and 60 nM.
For `CN(C(=O)C1CCS(=O)(=O)CC1)[C@@H](c1ccc(N2CCC(C)(C)c3c2cnc2cc(Cl)nn32)nc1)C(F)(F)F` [CPD0021562, N-[(1S)-1-(6-{4-chloro-13,13-dimethyl-2,3,7,10-tetraazatricyclo[7.4.0.0^2,6]trideca-1(9),3,5,7-tetraen-10-yl}pyridin-3-yl)-2,2,2-trifluoroethyl]-N-methyl-1,1-dioxo-1λ^6-thiane-4-carboxamide] the same measures were 103 nM and 80 nM.
On to `COc1ccc2ncc3c(c2n1)CCCN3c1ccc([C@H](N(C)C(=O)C2CCS(=O)(=O)CC2)C(F)(F)F)cc1` [CPD0072532, N-methyl-1,1-dioxo-N-[(1S)-2,2,2-trifluoro-1-[4-(2-methoxy-9,10-dihydro-8H-pyrido[2,3-f][1,7]naphthyridin-7-yl)phenyl]ethyl]thiane-4-carboxamide], for which the concentration for half-maximal inhibition (IC50) was found to be 548 nM in assay [1] and 217 nM in assay [2].
Regarding `CC1CCN(c2ccc([C@H](N(C)C(=O)[C@H]3CC[S@](=N)(=O)CC3)C(F)(F)F)cc2)c2cnc3cc(Cl)nn3c21` (some centres unmarked) [CPD0072813], the 50% inhibitory concentration (IC50) in assay [1] was determined as 61 nM; in assay [2], 27 nM.
For `CN(C(=O)C1CC(C(=O)O)C1)[C@@H](c1ccc(N2CCCc3c2cnc2cc(Cl)nn32)cc1)C(F)(F)F` (some centres unmarked) [CPD0072461] the same measures were 732 nM and 63 nM.
As to `CN(C(=O)CC1CCNC1)[C@@H](c1ccc(N2CCCc3c2cnc2cc(Cl)nn32)cc1)C(F)(F)F` (stereo partly drawn) [CPD0021849, N-[(1S)-1-(4-{4-chloro-2,3,7,10-tetraazatricyclo[7.4.0.0^2,6]trideca-1(9),3,5,7-tetraen-10-yl}phenyl)-2,2,2-trifluoroethyl]-N-methyl-2-(pyrrolidin-3-yl)acetamide], the half-inhibitory concentration (IC50) stood at 558 nM in assay [1] and 203 nM in assay [2].
As to `CN(C(=O)[C@H]1C[C@H](S(C)(=O)=O)C1)[C@@H](c1ccc(N2CCCc3c2cnc2cc(Cl)nn32)cc1)C(F)(F)F` [CPD0073501, trans-N-[(1S)-1-(4-{4-chloro-2,3,7,10-tetraazatricyclo[7.4.0.0^2,6]trideca-1(9),3,5,7-tetraen-10-yl}phenyl)-2,2,2-trifluoroethyl]-3-methanesulfonyl-N-methylcyclobutane-1-carboxamide], the concentration for half-maximal inhibition (IC50) was determined as 140 nM in assay [1] and 66 nM in assay [2].
Take `CC1CCN(c2ccc([C@H](N(C)C(=O)[C@H]3CC[S@@](=N)(=O)CC3)C(F)(F)F)cc2)c2cnc3cc(Cl)nn3c21` (some centres unmarked) [CPD0072812]: the IC50 stood at 79 nM in assay [1] and 31 nM in assay [2].
Taken in the same sequence, the figures for `CN(C(=O)[C@H]1CC[S@](=N)(=O)CC1)[C@@H](c1ccc(N2CCCc3c2cnc2cc(Cl)nn32)cc1)C(F)(F)F` (relative stereo) [CPD0072529, (1rel-r,4rel-r)-N-[(1S)-1-(4-{4-chloro-2,3,7,10-tetraazatricyclo[7.4.0.0^2,6]trideca-1(9),3,5,7-tetraen-10-yl}phenyl)-2,2,2-trifluoroethyl]-1-imino-N-methyl-1-oxo-1λ^6-thiane-4-carboxamide] were 94 nM and 26 nM.
Taken in the same sequence, the figures for `COc1ccc2ncc(Nc3ccc([C@H](N(C)C(=O)[C@H]4CC[S@](=N)(=O)CC4)C(F)(F)F)cc3)c([C@H](C)OC)c2n1` (stereo in doubt) [CPD0073130, (1 rel-r,4rel-r)-1-imino-N-methyl-1-oxo-N-[(1S)-2,2,2-trifluoro-1-[4-({6-methoxy-4-[(1 rel-S)-1-methoxyethyl]-1,5-naphthyridin-3-yl}amino)phenyl]ethyl]-1λ^6-thiane-4-carboxamide] were 24 nM and 61 nM.
For `CC1CCN(c2ccc([C@H](N(C)C(=O)C3CCS(=O)(=O)CC3)C(F)(F)F)cc2)c2cnc3cc(Cl)nn3c21` (single isomer, unassigned) [CPD0021811] the same measures were 82 nM and 68 nM.
Turning to `CN(C(=O)CC1CCCS1(=O)=O)[C@@H](c1ccc(N2CCCc3c2cnc2cc(Cl)nn32)cc1)C(F)(F)F` (stereo partly drawn) [CPD0021934, N-[(1S)-1-(4-{4-chloro-2,3,7,10-tetraazatricyclo[7.4.0.0^2,6]trideca-1(9),3,5,7-tetraen-10-yl}phenyl)-2,2,2-trifluoroethyl]-2-(1,1-dioxo-1λ^6-thiolan-2-yl)-N-methylacetamide], the results for the IC50 in assay [1] and in assay [2] were 588 nM and 369 nM, respectively.
For the compound `COC[C@]1(C)CCN(c2ccc([C@H](N(C)C(=O)[C@H]3CC[S@@](=N)(=O)CC3)C(F)(F)F)cc2)c2cnc3cc(Cl)nn3c21` (relative stereo) [CPD0073131, (1rel-s,4rel-s)-N-[(1S)-1-[4-[(13rel-R)-4-chloro-13-(methoxymethyl)-13-methyl-2,3,7,10-tetrazatricyclo[7.4.0.0^2,6]trideca-1(9),3,5,7-tetraen-10-yl]phenyl]-2,2,2-trifluoro-ethyl]-1-imino-N-methyl-1-oxo-1λ^6-thiane-4-carboxamide], the figures for the IC50 in assay [1] and in assay [2] were 97 nM and 67 nM, respectively.
For `CN(C(=O)[C@@H]1CCN(S(C)(=O)=O)C1)[C@@H](c1ccc(N2CCCc3c2cnc2cc(Cl)nn32)cc1)C(F)(F)F` (relative stereo) [CPD0073144, (3rel-R)-N-[(1S)-1-(4-{4-chloro-2,3,7,10-tetraazatricyclo[7.4.0.0^2,6]trideca-1(9),3,5,7-tetraen-10-yl}phenyl)-2,2,2-trifluoroethyl]-1-methanesulfonyl-N-methylpyrrolidine-3-carboxamide] the same measures were 116 nM and 66 nM.
Taken in the same sequence, the figures for `CN1C[C@H](C(=O)N(C)[C@@H](c2ccc(N3CCCc4c3cnc3cc(Cl)nn43)cc2)C(F)(F)F)CC1=O` (relative stereo) [CPD0073556, (3rel-R)-N-[(1S)-1-(4-{4-chloro-2,3,7,10-tetraazatricyclo[7.4.0.0^2,6]trideca-1(9),3,5,7-tetraen-10-yl}phenyl)-2,2,2-trifluoroethyl]-N,1-dimethyl-5-oxopyrrolidine-3-carboxamide] were 200 nM and 79 nM.
For `CN(C(=O)[C@@H]1CCN(C(=O)CO)C1)[C@@H](c1ccc(N2CCCc3c2cnc2cc(Cl)nn32)cc1)C(F)(F)F` (relative stereo) [CPD0073976, (3 rel-R)—N-[(1S)-1-(4-{4-chloro-2,3,7,10-tetraazatricyclo[7.4.0.0^2,6]trideca-1(9),3,5,7-tetraen-10-yl}phenyl)-2,2,2-trifluoroethyl]-1-(2-hydroxyacetyl)-N-methylpyrrolidine-3-carboxamide] the same measures were 149 nM and 57 nM.
As for `COC[C@]1(C)CCN(c2ccc([C@H](N(C)C(=O)[C@H]3CC[S@+]([O-])CC3)C(F)(F)F)cc2)c2cnc3cc(Cl)nn3c21` (relative stereo) [CPD0073136, (1rel-r,4rel-r)-N-[(1S)-1-[4-[(13rel-R)-4-chloro-13-(methoxymethyl)-13-methyl-2,3,7,10-tetrazatricyclo[7.4.0.0^2,6]trideca-1(9),3,5,7-tetraen-10-yl]phenyl]-2,2,2-trifluoro-ethyl]-N-methyl-1-oxo-1λ^4-thiane-4-carboxamide], the concentration for half-maximal inhibition (IC50) in assay [1] came to 63 nM; in assay [2] it was 138 nM.
For `CCN(C(=O)C1CCS(=O)(=O)CC1)[C@@H](c1ccc(N2CCCc3c2cnc2cc(Cl)nn32)cc1)C(F)(F)F` [CPD0073918, N-[(1S)-1-(4-{4-chloro-2,3,7,10-tetraazatricyclo[7.4.0.0^2,6]trideca-1(9),3,5,7-tetraen-10-yl}phenyl)-2,2,2-trifluoroethyl]-N-ethyl-1,1-dioxo-1λ^6-thiane-4-carboxamide] the same measures were 145 nM and 106 nM.
In the case of `COc1ccc2ncc(Nc3ccc([C@H](N(C)C(=O)[C@H]4CC[S@@](=N)(=O)CC4)C(F)(F)F)cc3)c([C@H](C)OC)c2n1` (stereo in doubt) [CPD0073129, (1 rel-s,4rel-s)-1-imino-N-methyl-1-oxo-N-[(1S)-2,2,2-trifluoro-1-[4-({6-methoxy-4-[(1 rel-S)-1-methoxyethyl]-1,5-naphthyridin-3-yl}amino)phenyl]ethyl]-1λ^6-thiane-4-carboxamide], the half-maximal inhibitory concentration (IC50) worked out at 36 nM in assay [1] and 64 nM in assay [2].
For the compound `CN(C(=O)[C@H]1CCCS(=O)(=O)C1)[C@@H](c1ccc(N2CCCc3c2cnc2cc(Cl)nn32)cc1)C(F)(F)F` [CPD0021809], the IC50 in assay [1] is 143 nM; in assay [2], 154 nM.
